Source: patent publication EP1137438B1, “FORMULATION WITH AN IMPROVED THERAPEUTIC RANGE, CONTAINING NUCLEOTIDE SYNTHESIS INHIBITORS” (Aventis Pharma Deutschland GmbH, priority 1998, dated 2000)

How the values were obtained:
[1] = test system: Adjuvans induzierte Arthritis; assay: Adjuvant-induced arthritis, modification after Perper (paw volume, arthritis index on day 18); type: in vivo, männliche Ratten eines Lewis-Stammes
Experimental: Adjuvans induzierte Arthritis, Modifikation nach Perper (Proc. Soc. exp. Biol. Med. 137, 506 (1971)) Als Versuchstiere dienten männliche Ratten eines Lewis-Stammes (Moellegard, Dänemark) mit einem Körpergewicht von 160 bis 210 g. Die Tiere erhielten am 1.
Tag eine subkutane Injektion in die Schwanzwurzel mit kompletten Freund'schen Adjuvans, enthaltend eine Mycobacterium butyricum Suspension in schwerem Paraffin Öl (Difco; 6 mg/kg in Paraffin Öl; Merck). Die Verbindungen N-(4-Trifluormethylphenyl)-2-cyan-3-hydroxy-crotonsäureamid und Colestyramin wurden in Carboxymethylcellulose (1 % in Wasser) suspendiert und oral verabreicht. Die Verbindungen wurden einmal täglich vom 1. bis zum 17. Versuchstag appliziert; dann erfolgte die Bestimmung des Pfotenvolumens und Arthritis-Index am 18. Tag.
Die Schwere der Erkrankung wurde durch Messung des Pfotenvolumens beider Hinterpfoten bestimmt. Die Messung erfolgte durch die Wasserverdrängungsmethode mit einem Plethysmometer 2060 (Rhema-Labortechnik, Hofheim, Deutschland). Ferner erfolgte die Bestimmung des Arthritis Index am 18. Tag nach der Injektion.
Bestimmung des Arthritis Index: 1. Ohren 0,5 Punkte für jedes Ohr an dem eine Rötung auftritt und Knoten gebildet werden 2. Nase 1 Punkt für Bindegewebsschwellung 3. Schwanz 1 Punkt für das Auftauchen von Knoten 4. Vorderpfoten 0,5 Punkte für jede Pfote an der wenigsten eine Entzündung an einem Gelenk auftritt 5. Hinterpfoten 1 Punkt für leichte Entzündung (Schwellung) 2 Punkte für eine mittelstarke Entzündung 3 Punkte für eine massive Entzündungsreaktion
Tiere einer Kontrollgruppe "Arthritis Kontrolle" erhielten am 1. Tag eine subkutane Injektion in die Schwanzwurzel mit kompletten Freund'schen Adjuvans und erhielten aber nur das Lösungsmittel (1 % Carboxymethylcellulose in Wasser). Pro Dosierung und in der Kontrollgruppe wurden jeweils 6 Tiere verwendet. Als weitere Kontrollgruppe "gesunde Kontrolle" wurden unbehandelte Tiere eingesetzt. Als Wirkungskriterium diente die Herabsetzung der Pfotenvolumenzunahme und die Abnahme des Arthritis Index gegenüber der unbehandelten Kontrollgruppe und das Gewicht der Tiere jeweils in Prozent und bezogen auf die Arthritis Kontrolle.
In der folgenden Tabelle wird N-(4-Trifluormethylphenyl)-2-cyan-3-hydroxycrotonsäureamid als Verbindung 1 bezeichnet. Colestyramin wurde 4 Stunden später als Verbindung 1 appliziert. Tabelle 1 zeigt die erhaltenen Ergebnisse. Tabelle 1

[2] = Blood levels and duration of action of Verbindung 1 after later administration of Colestyramin; type: in vivo; settings: after later administration of Colestyramin (interruption of enterohepatic circulation); result in words
Excerpt: Die erfindungsgemäße Zubereitung kann auch Kompositionen oder Kombinationspackungen umfassen, in denen die Bestandteile nebeneinander gestellt sind und deshalb gleichzeitig, getrennt oder zeitlich abgestuft an ein und denselben menschlichen oder tierischen Körper anwendbar sind. Bevorzugt ist die zeitlich abgestufte Applikation von der Verbindung der Formel I und/oder II vor der Applikation der Verbindung, die die enterohepatische Zirkulation der Verbindung der Formel I oder II im wesentlichen verhindert. Hierzu wird beispielsweise zuerst N-(4-Trifluormethylphenyl)-2-cyan-3-hydroxy-crotonsäureamid (im folgenden als Verbindung 1 bezeichnet) appliziert. Colestyramin, das die enterohepatische Zirkulation der Verbindung 1 im wesentlichen verhindert, wird zeitlich versetzt, also z.B. 2 Stunden oder 4 Stunden nach der Gabe der Verbindung 1, appliziert. Durch diese zeitlich versetzte Gabe der Verbindung 1 und Colestyramin wird die Verbindung 1 zunächst ungehindert aus dem Verdauungstrakt resorbiert.
Nach der Gabe von Colestyramin, welches systemisch nicht resorbiert wird, wird die über die Galle ausgeschiedene Verbindung 1 an Colestyramin gebunden und kann daher nicht wieder reabsorbiert werden; dadurch wird eine Unterbrechung der enterohepatischen Zirkulation bewirkt.

[3] = Tabelle 1, Verbindung 1 25 mg/kg oral (combination: + 1000 mg/kg Colestyramin 4 h later), once daily day 1-17, read day 18
[4] = Tabelle 1, Verbindung 1 2,5 mg/kg oral (combination: + 1000 mg/kg Colestyramin 4 h later), once daily day 1-17, read day 18
[5] = Tabelle 1, Verbindung 1 7,5 mg/kg oral (combination: + 1000 mg/kg Colestyramin 4 h later), once daily day 1-17, read day 18
[6] = Tabelle 2 (Beispiel 2), Colestyramin 1000, Verbindung 1 25, combination 25 + 1000 mg/kg (Colestyramin 4 h later)
[7] = Tabelle 3 (Beispiel 3), Colestyramin 1000, Verbindung 1 25, combination 25 + 1000 mg/kg (Colestyramin 4 h later)

CC(O)=C(C#N)C(=O)Nc1ccc(C(F)(F)F)cc1 [Verbindung 1, N-(4-Trifluormethylphenyl)-2-cyan-3-hydroxy-crotonsäureamid]
Arthritis Index (%) [1, 3]: -100%
Pfotenvolumen (%) [1, 3]: -92%
Arthritis Index (%) [1, 4]: -77%
Pfotenvolumen (%) [1, 4]: -63%
Arthritis Index (%) [1, 5]: -92%
Pfotenvolumen (%) [1, 5]: -83%
Arthritis Index (%) [1, 6]: -100%
Pfotenvolumen (%) [1, 6]: -92%
Arthritis Index (%) [1, 7]: -100%
Pfotenvolumen (%) [1, 7]: -110%
Wirksamkeit im pathologischen Tiermodell (Adjuvans Arthritis) ([1]; about 2,5 mg/kg/Tag Verbindung 1, effect of added Colestyramin, result in words): nicht vermindert
Wirkungsdauer und Blutspiegel der Verbindung 1 [2]: drastisch reduziert
